Test results as given in ChEMBL document CHEMBL1127069 (J Med Chem, 1993).

Experiments:
Format in all cases: functional
Vanilloid receptor = Vanilloid receptor (Rattus norvegicus, UniProt Q9ERZ8+Q9WUD2+O35433); experiment: Effective concentration for [Ca2+] uptake into dorsal root ganglia neurones in rat cultured spinal sensory neurones
Mus musculus = experiment: In vivo analgesic dose in mouse tail flick latency model
Cavia porcellus = species: Cavia porcellus; experiment: In vitro effective dose for contraction of guinea pig ileum

Row | SMILES | EC50 (Vanilloid receptor) [µM] | ED50 (Mus musculus) [µmol/kg] | EC50 (Cavia porcellus) [µM]
1 | CCCCCCCCCCCc1ccc(O)c(OC)c1 | > 100 | – | –
2 | CCCCCCCCNC(=O)C(O)c1ccc(O)c(OC)c1 (stereo unspecified) | 1.16 | – | –
3 | CCCCCCCCN/C(=C\[N+](=O)[O-])NCc1ccc(O)c(OC)c1 | > 100 | – | –
4 | CCCCCCCCC(=O)Nc1ccc(O)c(OC)c1 | 4.48 | > 50 | 1.17
5 | CCCCCCCC/N=C(/S)Nc1ccc(O)c(OC)c1 | 2.57 | > 50 | 2.56
6 | CCCCCCCCC(=O)N(C)Cc1ccc(O)c(OC)c1 | > 100 | – | –
7 | CCCCCCCCNC(=O)Cc1ccc(O)c(OC)c1 | 0.3 | 9.2 | –
8 | CCCCCCCCC(=O)NC(=S)NCc1ccc(O)c(OC)c1 | > 100 | – | –
9 | CCCCCCCC/N=C(/NC#N)NCc1ccc(O)c(OC)c1 | 3.28 | > 50 | 6.35
10 | CCCCCCCCS(=O)(=O)NCc1ccc(O)c(OC)c1 | 1.32 | > 50 | 2.9
11 | CCCCCCCCNC(=O)NCc1ccc(O)c(OC)c1 | 0.36 | – | –
12 | CCCCCCCCN(C)/C(S)=N/Cc1ccc(O)c(OC)c1 | 0.53 | – | –
13 | CCCCCCCC/N=C(\S)NCc1ccc(O)c(OC)c1 | – | 3.2 | –
14 | CCCCCCCCNC(=O)/C=C\c1ccc(O)c(OC)c1 | 17.9 | – | –
15 | CCCCCCCCC(=O)/C=C/c1ccc(O)c(OC)c1 | > 100 | – | –
16 | CCCCCCCCOC(=O)Cc1ccc(O)c(OC)c1 | 0.67 | – | –
17 | CCCCCCCC/C(S)=N\Cc1ccc(O)c(OC)c1 | 0.28 | 38 | 1.23
18 | CCCCCCCCC(=O)OCc1ccc(O)c(OC)c1 | 14.2 | – | –
19 | CCCCCCCCC(=O)NCc1ccc(O)c(OC)c1 [NONIVAMIDE] | – | 5 | –
20 | CCCCCCCCSC(=O)Cc1ccc(O)c(OC)c1 | 1.17 | – | –
21 | CCCCCCCCC(=O)NCCc1ccc(O)c(OC)c1 | 18.3 | – | –
22 | CCCCCCCC/N=C(/S)N(C)Cc1ccc(O)c(OC)c1 | > 100 | – | –
23 | CCCCCCCCNC(=O)/C=C/c1ccc(O)c(OC)c1 | > 100 | – | –
24 | COc1cc(CNC(=O)CCCC/C=C/C(C)C)ccc1O [CAPSAICIN] | – | 15 | –
25 | CCCCCCCCCC(=O)Cc1ccc(O)c(OC)c1 | 3.78 | – | –
26 | CCCCCCCCN(C)C(=O)Cc1ccc(O)c(OC)c1 | 6.29 | – | –
27 | CCCCCCCCNC(=O)CCc1ccc(O)c(OC)c1 | 2.32 | – | –
28 | CCCCCCCCN/C(NCc1ccc(O)c(OC)c1)=[S+]\C.[I-] | > 100 | – | –
29 | CCCCCCCCC(=O)CCc1ccc(O)c(OC)c1 | 2.13 | – | –
30 | CCCCCCCCNC(=O)c1ccc(O)c(OC)c1 | > 100 | – | –
